Key:
B. subtilis 168 (pBMV4) = assay: paper disk growth inhibition on agar medium, B. subtilis 168 (pBMV4); format: cell-based, Bacillus subtilis; settings: 50 μl of 5 μg/ml fosmidomycin on paper disk, 37° C. overnight
Procedure: The B. subtilis 168 (pBMV4) was subjected to shaking culturing at 37° C. overnight in 5 ml of LB liquid medium containing 3.4 μg/ml chloramphenicol. […]
The gene on the pBMV4 is expressed only in the presence of IPTG 50 μl of aqueous solution of 5 μg/ml fosmidomycin was dropped on a paper disk, and then the paper disk was placed on the above two types of agar mediums, followed by culturing at 37° C. overnight.

[1] = test system: B. subtilis delypgA (pBMV4); assay: paper disk growth inhibition on agar medium, B. subtilis delypgA (pBMV4); format: cell-based, Bacillus subtilis; settings: 50 μl of 5 μg/ml fosmidomycin on paper disk, 37° C. overnight
Procedure: The B. subtilis delypgA (pBMV4) was subjected to shaking culturing at 37° C. overnight in 5 ml of LB liquid medium containing 3.4 μg/ml chloramphenicol.
One thousandth amount of the above culture solution was added into Nutrient Broth “Eiken” (Eiken Chemical Co., Ltd.) containing 3.4 μg/ml chloramphenicol to prepare an agar medium.
One thousandth amount of the above culture solution was added into Nutrient Broth “Eiken” containing 1 mM IPTG, 3.4 μg/ml chloramphenicol and 0.02% mevalonic acid to prepare an agar medium. The gene on the pBMV4 is expressed only in the presence of IPTG
50 μl of aqueous solution of 5 μg/ml fosmidomycin was dropped on a paper disk, and then the paper disk was placed on the above two types of agar mediums, followed by culturing at 37° C. overnight.

[2] = medium to which mevalonic acid and IPTG were added
[3] = medium to which mevalonic acid and IPTG were not added

## O=CN(O)CCCP(=O)(O)O [fosmidomycin]
B. subtilis 168 (pBMV4); [2]
  growth inhibition ring: not observed
B. subtilis 168 (pBMV4); [3]
  growth inhibition ring: observed
[1]; [2]
  growth inhibition ring: not observed
[1]; [3]
  growth inhibition ring: observed

Reference: patent US20030170662A1, “Method for screening substance specifically inhibiting non-mevalonate pathway” (priority 2000, published 2003)
